Data as given in paper PMC5219620 (International Journal for Parasitology: Drugs and Drug …, 2016).

System: L6 cells
Assay: AlamarBlue in vitro compound toxicity in L6 cells
Assay type: cell-based, rat
Settings: upper bound of TI over T. copemani G1, G2 and T. cruzi

SMILES | Therapeutic index (TI), in general over all trypanosomes tested
Nc1nc(N)nc(Nc2ccc([As]3SCC(CO)S3)cc2)n1 (centres unmarked) [Melarsoprol, (2-(4-(4,6-diamino-1,3,5-triazin-2-ylamino)phenyl)-1,3,2-dithiarsolan-4-yl)methanol] | < 12.1
CCCCCCCCCCCCCCCCOP(=O)([O-])OCC[N+](C)(C)C [Miltefosine, hexadecylphosphocholine] | < 2.4
